# Article PMC6201930 (PLoS ONE, 2018)
# Where “and” joins values, the source holds several entries; their conditions need not be identical. Equal entries are not always repeated. Where two headings read alike, the source gives them in different places.
# Key:
# [1] = test system: p53 R213* UGA premature termination codon in HDQ-P1 mammary carcinoma cells; assay: HDQ-p53UGA213 readthrough assay (full-length p53, MSD immunoassay); assay type: cell-based, human; details: for HDQ-p53UGA213 (Maxfold): maximum readthrough activity above background
# Description: We utilized HDQ-P1 mammary carcinoma cells, which are homozygous for R213*, a UGA premature termination codon in the gene for the tumor suppressor protein p53 [30]. […] Western blot hybridization and Meso Scale Discovery (MSD) immunoassay detection of p53 were done as previously described. […] Cells (45K per well) were grown in 96-well plates and treated with compounds for 24 hours. […] Cells were lysed with 60 μl per well of lysis buffer (20 mM Tris-HCL, pH 7.5, 1 mM EGTA, 1 mM EDTA,150 mM Nacl, 0.5% Triton X100) for one hour at room temperature and 30 μl of lysate per well were transferred to the coated plate and incubated overnight at 4 °C. […] Plates were then washed three times with PBS-T and 30 μl of 0.25 μ/ml goat anti-rabbit IgG-Sulfo-tag antibody (MSD) in TBS-C was added and incubated for 1 hour at room temperature. Plates were then washed three times with PBS-T and 150 μl read buffer (MSD) was added. Plates were read immediately in a SECTOR S 600 (MSD).
# [2] = test system: tGFP-CFTR542X-HA-HIS construct (codon 542 UGA) in 293H cells; assay: tGFP-542X readthrough assay (HA-HIS MSD immunoassay); assay type: cell-based, human
# [3] = test system: fLuc mRNA harboring a UGA nonsense mutation at codon 190 (fLuc-190-NS); assay type: biochemical, rabbit
# Source text: ThefLuc-190-NS assay is an in vitro rabbit reticulocyte lysate translation of an fLuc mRNA harboring a UGA nonsense mutation at codon 190 (fLuc-190-NS). It is believed that positively charged aminoglycosides are poorly taken up by cells, and we used this cell-free readthrough assay to eliminate the potential variable of cell uptake when measuring readthrough potency. […] Readthrough protein was detected using a HA-HIS MSD immunoassay described previously.
# This cell-free translation assay used synthetic LUC mRNAs harboring an EMCV IRES and LUC codon 190-UGA premature stop codon prepared using the MegaScript in vitro transcription kit (Ambion). Translation reactions were done with the Rabbit Reticulocyte Lysate System (Promega) with 100 ng RNA and increasing concentrations of aminoglycosides. The amount of luminescence produced was determined after approximately 4 hours using a Viewlux CCD imager (Perkin-Elmer). Fold suppression over background was calculated as (aminoglycoside light units/PBS light units).
# [4] = Cytotoxicity in stimulated PBMCs (CellTitre-Glo ATP); details: human
# Source text: (§1) When considering compounds for potential readthrough therapy it is important to monitor cellular and animal safety. In order to determine the most promising compounds to further evaluate in in vivo safety, we measured cytotoxicity in two different cell types. We used activated human peripheral blood mononuclear cells (PBMCs) (Table 2 and Fig 2D and 2E). PBMCs are a primary cell that when activated with phytohaemagglutinin (PHA) expand quickly and are commonly used as an in vitro surrogate for rapidly growing cells in the human body to evaluate cytotoxicity. Prior to advancing compounds into human studies, safety evaluation in rodents is performed. As an in vitro surrogate for rodent toxicity, we used primary mouse myoblasts.
# (§2) Frozen human Peripheral Blood Mononuclear Cells (PBMCs) were obtained from […] (Alameda, CA, Cat# PB003F) from a single donor. […] Plates were incubated at 37°C with 5% CO2 for 4 hours prior to compound treatment. Compounds were serially diluted and added to the plates. Plates were incubated at 37°C, 5% CO2 incubator, for 72 hours prior to determinations of ATP levels. Cell viability was determined using a chemiluminescent assay to monitor adenosine triphosphate (ATP) levels in live cells (CellTitre-Glo; CTG; Promega, Cat#G7571). Methods were performed per the manufacturer’s instructions.
# [5] = test system: activated human peripheral blood mononuclear cells (PBMCs); assay: as above; details: read-out: Stimulated PBMC CC50, individual determinations (S1 File)
# Source text: as §1, §2
# [6] = Cytotoxicity in myoblasts; details: mouse, primary mouse myoblasts
# Source text: as §1
# [7] = Neuromast toxicity assay (DASPEI staining); details: zebrafish, zebrafish embryos 5 dpf, neuromasts (hair cells), other: embryos exposed to the drug in 24-well plates
# [8] = concentration required to double the level of full-length p53 protein, average ± SD, at least three experiments, highest concentration 300 μM
# [9] = individual experiments (S1 File)
# [10] = individual experiments (S1 File), max fold
# [11] = 293H cells, 24 hours, average ± SD
# [12] = individual experiments (S1 File), unit not printed for EC5X (EC2X of the sheet in uM)
# [13] = maximum readthrough above background, average ± SD
# [14] = AVERAGE (S1 File), unit not given for EC5X
# [15] = Stimulated PBMC CC50, AVERAGE (S1 File)
# [16] = Myoblast CC50, AVERAGE (S1 File)
# [17] = Myoblast CC50, individual determinations (S1 File)
# [18] = Neuromast CC50, AVERAGE (S1 File)
# [19] = Neuromast CC50, individual determinations (S1 File)
# [20] = individual experiments (S1 File), listed as PTC-0302307 (C1)
# [21] = individual experiments (S1 File), unit not printed for EC5X (EC2X of the sheet in uM), listed as PTC-0302307 (C1)
SMILES,HDQ-p53UGA213 EC2X ([1]; AVERAGE (S1 File)) [µM],HDQ-p53UGA213 max ([1]; AVERAGE (S1 File)),"HDQ-p53UGA213 EC2X [1, 8] [µM]","HDQ-p53UGA213 EC2X [1, 9]","HDQ-p53UGA213 max [1, 10]",HDQ-p53UGA213 (Maxfold) ([1]; average ± SD) [fold],"tGFP-542X EC2X [2, 11] [µM]",tGFP-542X EC2X ([2]; AVERAGE (S1 File)) [µM],tGFP-542X Maxfold ([2]; AVERAGE (S1 File)),"tGFP-542X EC2X [2, 9]","tGFP-542X Maxfold [2, 9]","tGFP-542X EC5X [2, 12]","tGFP-542X Maxfold [2, 13] [fold]",fLuc-190-NS EC2X ([3]; AVERAGE (S1 File)) [µM],fLuc-190-NS MaxFold ([3]; AVERAGE (S1 File)),"fLuc-190-NS EC5X [3, 14]","fLuc-190-NS EC2X ([3]; cell-free, average ± SD) [µM]","fLuc-190-NS MaxFold ([3]; cell-free, average ± SD) [fold]","CC50 at 24 h [7, 18] [µM]","CC50 at 24 h [7, 19] [µM]",further results
"CN[C@@H]1[C@@H](O)[C@@H](O[C@@H]2[C@@H](O)[C@H](O[C@H]3O[C@H](CO)[C@@H](O)[C@H](O)[C@H]3N)[C@@H](N)C[C@H]2N)OC[C@H]1O [Gentamicin A, gentamicin A]",585.5,2.7,586 ± 100,658.30 µM and 626.86 µM and 471.32 µM,2.50 and 3.24 and 2.45,3 ± 0.4,385 ± 123,385.2,3.8,490.42 µM and 415.81 µM and 249.27 µM,3.32 and 4.14 and 3.99,>1000,4 ± 0.4,0.45,6.7,2.0,0.45 ± 0.015,6.7 ± 0.4,17,17,"fLuc-190-NS EC2X [3, 9]: 0.44 µM and 0.47 µM and 0.45 µM; fLuc-190-NS MaxFold [3, 9]: 6.38 and 6.62 and 7.20; fLuc-190-NS EC5X [3, 12]: 1.95 and 2.14; CC50 at 72 h [4, 15]: 3.62 mM; CC50 [5]: > 1.25 mM and 3.62 mM; CC50 [6, 16]: 6.21 mM; CC50 [6, 17]: 6.21 mM"
"CN[C@@H]1[C@@H](O)[C@@H](O[C@@H]2[C@@H](O)[C@H](O[C@H]3O[C@H]([C@@H](C)NC)CC[C@H]3N)[C@@H](N)C[C@H]2N)OC[C@]1(C)O [Gentamicin C1, gentamicin C1]",311.4,4.8,311 ± 321,–,–,5 ± 3,439 ± 192,439.1,3.4,–,–,–,3 ± 2,1.1,18.9,2.6,1.061 ± 0.262,19 ± 2,9.4,9.4,"HDQ-p53UGA213 EC2X ([1]; concentration required to double the level of full-length p53 protein, average ± SD, at least three experiments, highest concentration 300 μM, listed as C1): triple digit; HDQ-p53UGA213 EC2X [1, 20]: 74.03 µM and 776.89 µM and 269.47 µM and 125.28 µM; HDQ-p53UGA213 max ([1]; individual experiments (S1 File), max fold, listed as PTC-0302307 (C1)): 6.40 and 2.10 and 2.50 and 8.00; tGFP-542X EC5X [2, 14]: 825.7; tGFP-542X EC2X [2, 20]: 303 µM and 575 µM and >1000 µM; tGFP-542X Maxfold [2, 20]: 6 and 2 and 1.70; tGFP-542X EC5X [2, 21]: 826 and >1000; fLuc-190-NS EC2X [3, 20]: 1.36 µM and 0.90 µM and 0.92 µM; fLuc-190-NS MaxFold [3, 20]: 18.25 and 17.61 and 20.78; fLuc-190-NS EC5X [3, 21]: 2.89 and 2.68 and 2.37; CC50 at 72 h ([4]; Stimulated PBMC CC50, individual determinations (S1 File)): > 1.25 mM; CC50 ([5]; listed as PTC-0302307 (C1)): > 1 mM"
"CN[C@@H]1[C@@H](O)[C@@H](O[C@@H]2[C@@H](O)[C@H](O[C@H]3O[C@H]([C@H](C)N)CC[C@H]3N)[C@@H](N)C[C@H]2N)OC[C@]1(C)O [Gentamicin C2a, gentamicin C2a]",251.7,4.2,252 ± 49,217.36 µM and 286.09 µM,3.40 and 5.00,4 ± 1,583 ± 110,582.8,2.8,691 µM and 586 µM and 471.89 µM,2.62 and 2.35 and 3.32,>1000,3 ± 0.5,1.1,32.1,2.8,1.077 ± 0.029,32 ± 5,2.7,2.7,"HDQ-p53UGA213 EC2X ([1]; concentration required to double the level of full-length p53 protein, average ± SD, at least three experiments, highest concentration 300 μM, listed as C2a): triple digit; fLuc-190-NS EC2X [3, 9]: 1.08 µM and 1.10 µM and 1.05 µM; fLuc-190-NS MaxFold [3, 9]: 26.96 and 33.13 and 36.29; fLuc-190-NS EC5X [3, 12]: 2.91 and 2.75 and 2.60; CC50 at 72 h [4, 15]: 6.71 mM; CC50 [5]: > 1.25 mM; CC50 [6, 16]: 5.68 mM; CC50 [6, 17]: 4.64 mM"
